# According to the OligoGym collection:
# After the bases stand the sugars from the 5' end (letter, count) and the backbone: PS all phosphorothioate, else s phosphorothioate and o phosphodiester by linkage. Methylation of C is not given here. e = 2'-O-(2-methoxyethyl) (MOE); k = constrained ethyl (cEt); d = 2'-deoxy (DNA)
# Target: APOL1
# Details: ASO
Sequence,"target mRNA inhibition (A431, 2 µM)","target mRNA inhibition (A431, 0.0625 µM)","target mRNA inhibition (A431, 0.25 µM)","target mRNA inhibition (A431, 1 µM)","target mRNA inhibition (A431, 0.0156 µM)","target mRNA inhibition (A431, 0.04 µM)"
"TCAGATGGGTACTTCT (sugars kkkddddkekekdddd, PS)",50%,–,–,–,–,–
"TCAGCTATGGAAATGC (sugars k4 d9 k3, PS)",–,45%,78%,92%,–,–
"TGGTTCAAAAGCAGCA (sugars kkddddkekekddddd, PS)",68%,–,–,–,–,–
"AGCTTTAAACTCAGGT (sugars kkddddkekekddddd, PS)",87%,–,–,–,–,–
"TTCTATTAGAGGGCTA (sugars kkkddddkekekdddd, PS)",42%,–,–,–,–,–
"TATTTCTTGATGTGGT (sugars k3 d4 k3 e1 d5, PS)",99%,78%,95%,98%,45%,–
"ACTTCTGTTAGATACA (sugars k4 d9 k3, PS)",–,38%,73%,90%,–,–
"AACACATCATTGGGTT (sugars k3 d4 k3 e1 d5, PS)",58%,–,–,–,–,–
"ATCAGATGGGTACTTC (sugars kdddddkekekddddd, PS)",73%,–,–,–,–,–
"ACGCAATGCTGACTTG (sugars kkdddddkekeddddd, PS)",89%,–,–,–,–,–
"GAACGCAATGCTGACT (sugars k2 d4 e3 k2 d5, PS)",95%,42%,77%,92%,20%,–
"AGATGTGTTTAGGCAT (sugars k4 d9 k3, PS)",–,54%,85%,95%,–,–
"TTCTATTAGAGGGCTA (sugars kkddddkekekkdddd, PS)",26%,–,–,–,–,–
"CTTTATACCAGTGTCT (sugars kkddddkdkdkddddd, PS)",92%,–,–,–,–,–
"TGGTTCAAAAGCAGCA (sugars kkkddddkekekdddd, PS)",57%,–,–,–,–,–
"CTTTAAACTCAGGTGA (sugars k3 d4 k3 e1 d5, PS)",59%,–,–,–,–,–
"CTGAAGATTGGCTCTG (sugars kkkddddkekekdddd, PS)",36%,–,–,–,–,–
"TTCATGATCATTTGTC (sugars k4 d9 k3, PS)",–,47%,68%,81%,–,–
"TGGTTCAAAAGCAGCA (sugars kkddddekekeddddd, PS)",82%,–,–,–,–,–

Sequence,"target mRNA inhibition (A431, 2 µM)","target mRNA inhibition (A431, 0.0625 µM)","target mRNA inhibition (A431, 0.25 µM)","target mRNA inhibition (A431, 1 µM)","target mRNA inhibition (A431, 0.0156 µM)","target mRNA inhibition (A431, 0.04 µM)"
"GTTATATTTGATCCTC (sugars kkddddkekekddddd, PS)",80%,–,–,–,–,–
"CTGTTCTAACTCTTGG (sugars kkddddekekeddddd, PS)",97%,64%,83%,92%,43%,–
"TCAACACATCATTGGG (sugars k4 d9 k3, PS)",–,38%,73%,90%,–,–
"CTATTAGAGGGCTAGT (sugars kddddkekekeddddd, PS)",34%,–,–,–,–,–
"TCCGTCAATATATTCT (sugars kkddddkekekddddd, PS)",94%,–,–,–,–,–
"AGCTTTAAACTCAGGT (sugars kdddddkekekddddd, PS)",95%,46%,80%,92%,14%,–
"TCTATTAGAGGGCTAG (sugars kkddddkekekkdddd, PS)",25%,–,–,–,–,–
"TGTTATATTTGATCCT (sugars kkkddddkdkdkdddd, PS)",66%,–,–,–,–,–
"TTGGGTCAAAAGCGAT (sugars k4 d9 k3, PS)",–,56%,86%,93%,–,–
"TTATTGCAGGCTCCAA (sugars k4 d9 k3, PS)",–,39%,47%,76%,–,–
"CACTTTATACCAGTGT (sugars kkddddkekekddddd, PS)",14%,–,–,–,–,–
"ATTCAGAATTTCCACT (sugars kkddddkdkdkddddd, PS)",79%,–,–,–,–,–
"TCCGTCAATATATTCT (sugars k3 d10 k3, PS)",–,83%,96%,98%,–,–
"AGCTTTAAACTCAGGT (sugars k2 d4 e3 k2 d5, PS)",93%,–,–,–,–,–
"GATTCTGTGTGCTCAC (sugars k4 d9 k3, PS)",–,46%,72%,87%,–,–
"TCCAGATGTGTTTAGG (sugars k4 d9 k3, PS)",–,82%,89%,94%,–,–
"TTATATTTGATCCTCA (sugars kddddkekekeddddd, PS)",39%,–,–,–,–,–
"TCCGTCAATATATTCT (sugars kkkddddkekekdddd, PS)",95%,57%,84%,94%,30%,50%
"TCCGTTCCAGGCCTCA (sugars k4 d9 k3, PS)",–,29%,44%,58%,–,–
